# How the values were obtained:
# Type in all cases: cell-based
# [1] = tested on: A549 human lung adenocarcinoma epithelial cell line; assay: Radiotherapy plus DEA, colony formation, A549; conditions: 1Gy or 2Gy single dose alone or with 500 nM-3 μM DEA
# Procedure: (§1) Cells were trypsinized and plated in triplicate into 6-well plates at 500 cells/well. Cells were treated with different concentration of DEA and irradiated with a dose of 1.0 and 2.0 Grays. A telecobalt (Therathron 780 C) external irradiation equipment (average photon energy of 1.25 MeV) will be applied for irradiating cells. After 7 days of incubation, cells were washed and stained with Coomassie-blue, and the colonies containing more than 50 cells were counted. The number of colonies were determined and normalized to the number of colonies in controls.
# To examine the effects of a DEA on the effectiveness of radiotherapy the cells were treated with 1Gy or 2Gy single dose irradiation alone or combined with 500 nM-3 μM DEA.
# The cells were treated with 1Gy or 2Gy single dose irradiation alone or combined with 500 nM-3 μM DEA. Untreated cells served as controls. The results are mean±SEM of 3 independent experiments performed in at least quadruplicate. p<0.05 compared to the corresponding control group.
# [2] = tested on: T24 (human urinary bladder carcinoma) cells; assay: MTT cell viability assay, T24; conditions: 24 h and 48 h; 5, 10, 15 and 15 μM; vs untreated control
# Procedure: (§2) The cells were seeded into 96-well plates at a starting density of 10^4 cells per well and cultured overnight before DEA was added to the medium for 24 h and 48 h. The medium was changed to a fresh one containing 0.5% of 3-[4,5-dimethylthiazol-2-yl]-2,5-diphenyl-tetrazolium bromide (MTT+) for an additional 3 hours, then the MTT+ reaction was terminated by adding HCl to 10 mM final concentration. The amount of blue formazan dye formed from MTT+ was proportional to the number of live cells, and was determined with an Anthos Labtech 2010 ELISA reader at 550 nm. All experiments were run in at least 4 replicates and repeated 3 times.
# The effect of desethylamiodarone was measured in T24 (human urinary bladder carcinoma), A549 (human lung adenocarcinoma epithelial), B16F10 (mice melanoma), HeLa (human cervix adenocarcinoma), 4T1 (mouse mammary carcinoma) cell lines. Cells were treated with increasing concentrations of desethylamiodarone for 24 and 48 h. Cell growth was assessed by measuring metabolic activity, which reflects viability in the MTT-test in the course of 24 h, 48 h of continued exposure to desethylamiorarone. The untreated cells served as negative controls. […]
# T24 cells were exposed for 24 h (A), 48 h (B) to […], 10 μM, 15 μM and 15 μM desethylamiodarone (filled bars). Viability of the cells was detected by the MTT+ method. […]
# [3] = tested on: MCF 7 breast cancer cells; assay: Radiotherapy plus DEA, MTT viability, MCF 7; conditions: 2Gy, 24, 48 and 72 hours, increasing DEA
# Procedure: as §2
# MCF 7 cells were exposed to 2Gy irradiation for 24, 48 and 72 hours in presence or absence of increasing concentration of DEA. Viability of the cells was detected by the MTT method. Untreated cells served as controls.
# [4] = tested on: T24/83 human urinary bladder carcinoma cell line; assay: Colony formation assay, T24; conditions: 7 days; 500 nM-3 μM
# Procedure: as §1, with “Dea.” for “DEA and irradiated with a dose of 1.0 and 2.0 Grays. A telecobalt (Therathron 780 C) external irradiation equipment (average photon energy of 1.25 MeV) will be applied for irradiating cells.”
# To assess the recovery ability of cells that survived treatment, long-term (7 days) colony formation assay was performed.
# Untreated cells served as controls. The results are mean±SEM of 3 independent experiments performed in at least quadruplicate. p<0.01 compared to the corresponding control group. The data shown on FIG. 5 provide evidence that DEA can be useful to treat bladder cancer.
# [5] = tested on: A549 (human lung adenocarcinoma epithelial) cells; assay: MTT cell viability assay, A549; conditions: increasing concentrations, 24 and 48 h
# Procedure: as §2
# The effect of desethylamiodarone was measured in T24 (human urinary bladder carcinoma), A549 (human lung adenocarcinoma epithelial), B16F10 (mice melanoma), HeLa (human cervix adenocarcinoma), 4T1 (mouse mammary carcinoma) cell lines. Cells were treated with increasing concentrations of desethylamiodarone for 24 and 48 h. Cell growth was assessed by measuring metabolic activity, which reflects viability in the MTT-test in the course of 24 h, 48 h of continued exposure to desethylamiorarone. The untreated cells served as negative controls. The viability of the cells, was lower in all DEA-treated than in the control group, with the difference being statistically significant.
# [6] = tested on: A549 human lung adenocarcinoma epithelial cell line; assay: Colony formation assay, A549; conditions: one week; 1, 1.5, 2, 2.5 or 3 μM
# Procedure: Cells were trypsinized and plated in triplicate into 6-well plates at 500 cells/well. Cells were treated with different concentration of Dea. After 7 days of incubation, cells were washed and stained with Coomassie-blue, and the colonies containing more than 50 cells were counted. The number of colonies were determined and normalized to the number of colonies in controls. To assess the recovery ability of cells that survived treatment, long-term (7 days) colony formation assay was performed. […] A549 cells were incubated with the indicated concentrations of desethylamiodarone (1, 1.5, 2, 2.5 or 3 μM for one week and cell colonies were fixed, stained and counted. (A-B) Data are expressed as the mean±SD of ≧3 experiments; a p<0.01 is considered statistically significant.
smiles,measurement,setting,value
"CCCCc1oc2ccccc2c1C(=O)c1cc(I)c(OCCNCC)c(I)c1 [DEA, (2-butyl-3-benzofuranyl)[4-[2-(ethylamino)ethoxy]-3,5-diiodophenyl]-methanone]","Radiosensitization, colony formation, A549",[1],sensitize lung cancer to irradiation
same,Viability of T24 cells (MTT),[2],Significantly different from control group at p<0.01
same,"Radiosensitization, viability of MCF 7 (MTT)",[3],sensitize MCF 7 breast cancer cells to irradiation
same,"Colony formation, T24",[4],significant decrease in the number and the size of colonies
same,Viability of A549 cells (MTT),[5],significantly inhibited the viability
same,"Colony formation, A549",[6],significant decrease in the number and the size of colonies

# Source: patent US9884040B2, “Desethylamiodarone for use in cancer treatment” (PÉCSI TUDOMÁNYEGYETEM, priority 2015, dated 2018)
